Data reported in patent US5686424A, “2-oxoethyl derivatives as immunosuppressants” (Miles Inc., priority 1995, dated 1997).
pIC50: −log10 of the molar value. Like-named read-outs stand apart in the source and are kept apart here.

Legend:
FKBP = FKBP (Homo sapiens, UniProt P62942); assay: PPIase Inhibition Assay; format: biochemical; details: concentration of inhibitor required for 50% inhibition of enzyme activity; FKBP, substrate Succinyl-Ala-Phe-Pro-Phe-para-nitroanilide; TABLE I
Procedure, shortened: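 Rates from p-nitroaniline release at 390 nm over 90 sec, fitted first-order, were converted to % activity remaining relative to uncatalyzed and uninhibited rates, with IC50 from linear regression of V-/V+ against inhibitor level. FKBP acted on Suc-Ala-Phe-Pro-Phe-pNA with excess chymotrypsin, HEPES pH 7.8, cold buffer.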

human T-cells = assay: Suppression of Human T-Cell Proliferation Assay (PHA-stimulated, [3H]-thymidine incorporation); format: cell-based; details: TABLE 2
Procedure, shortened: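 Read-out is scintillation counting of [3H]-thymidine pulsed for the last 6 h of a 72 h, 37° C culture. Human T-cells, isolated from LeukoPaks by Lymphoprep and sheep-erythrocyte rosetting, were PHA-M activated (40 μg/ml stock) with compound dilutions added in duplicate wells.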

[1] = read-out: concentrations that suppress the T-cell proliferative response by 50%
[2] = concentration inhibiting [3H]-thymidine incorporation of PHA-stimulated T-cells by 50%, 72 hours, read-out: IC50

FKBP, sequence (P62942 whole entry): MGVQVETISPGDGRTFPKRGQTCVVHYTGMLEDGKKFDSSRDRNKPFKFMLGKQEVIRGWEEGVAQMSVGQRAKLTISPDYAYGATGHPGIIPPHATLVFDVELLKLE

O=C(NCc1ccccc1)[C@H](COCc1ccccc1)NC(=O)[C@@H]1CCCN1CC(=O)C12CC3CC(CC(C3)C1)C2 [Example 62, L-Serine-(O-Benzyl Ether), N-[1-(2-Adamantan-1-yl-2-Oxoethyl)-L-Prolyl] Benzylamide]
pIC50 (FKBP): 5.89
pIC50 (human T-cells; [1]): > 5.00
pIC50 (human T-cells; [2]): 5.40

CC[C@H](C)[C@H](NC(=O)[C@@H]1CCCN1CC(=O)O[C@@H](c1ccccc1)C(C)C)C(=O)NCc1ccccc1 [Example 93, L-Isoleucine, N-[1-(2-(2-Methyl-1-(R)-Phenyl-1-Propoxy)-2-Oxoethyl)-L-Prolyl] Benzylamide]
pIC50 (FKBP): 5.92
pIC50 (human T-cells; [1]): > 5.00
pIC50 (human T-cells; [2]): 5.22

CC[C@H](C)[C@H](NC(=O)[C@@H]1CCCN1CC(=O)C1CC2CC(C1C)C2(C)C)C(=O)NCc1ccccc1 (stereo partly drawn) [Example 41, L-Isoleucine, N-[1-[2-(2,6,6-Trimethyl-Bicyclo[3.1.1]hept-3-yl)-2-Oxoethyl]-L-Prolyl] Benzylamide]
pIC50 (FKBP): > 5.30
pIC50 (human T-cells; [1]): > 5.00
pIC50 (human T-cells; [2]): 5.22

CC[C@H](C)[C@H](NC(=O)[C@@H]1CCCN1CC(=O)NC12CC3CC(CC(C3)C1)C2)C(=O)NCc1ccccc1 [Example 39, L-Isoleucine, N-[1-(2-Aminoadamant-1-yl-2-oxoethyl)-L-Prolyl] Benzylamide]
pIC50 (FKBP): 4.82
pIC50 (human T-cells; [1]): > 5.00
pIC50 (human T-cells; [2]): 5.22

CC[C@H](C)[C@H](NC(=O)[C@@H]1CCCN1CC(=O)NC1C2CC3CC(C2)CC1C3)C(=O)NCc1ccccc1 (stereo partly drawn) [Example 90, L-Isoleucine, N-[1-(Adamantan-2-ylcarbamoylmethyl)-L-Prolyl] Benzylamide]
pIC50 (FKBP): > 5.30
pIC50 (human T-cells; [1]): > 5.00
pIC50 (human T-cells; [2]): 5.22

O=C(CC(NC(=O)[C@@H]1CCCN1CC(=O)C12CC3CC(CC(C3)C1)C2)c1ccccc1)NCc1ccccc1 (stereo partly drawn) [Example 63, L-β-Phenylalanine, N-[1-(2-Adamantan-1-yl-2-Oxoethyl)-L-Prolyl] Benzylamide]
pIC50 (FKBP): 6.52
pIC50 (human T-cells; [1]): > 5.00
pIC50 (human T-cells; [2]): 5.22

CC[C@H](C)[C@H](NC(=O)[C@@H]1CCCN1CC(=O)C12CC3CC(CC(C3)C1)C2)C(=O)N[C@H](C)c1ccccc1 [Example 66, L-Isoleucine, N-[1-(2-Adamantan-1-yl-2-Oxoethyl)-L-Prolyl] alpha-(R)-methylbenzylamide]
pIC50 (FKBP): 7.00
pIC50 (human T-cells; [1]): > 5.00
pIC50 (human T-cells; [2]): 5.52

CC[C@H](C)[C@H](NC(=O)[C@@H]1CCCN1CC(=O)O[C@H](c1ccccc1)C(C)C)C(=O)NCc1ccccc1 [Example 92, L-Isoleucine, N-[1-(2-(2-Methyl-1-(S)-Phenyl-1-Propoxy)-2-Oxoethyl)-L-Prolyl] Benzylamide]
pIC50 (FKBP): 6.22
pIC50 (human T-cells; [1]): > 5.00
pIC50 (human T-cells; [2]): 5.22
